Laboratory results taken from PMC8241751, “Influence of the Dabcyl group on the cellular uptake of cationic peptides: short oligoarginines as efficient cell-penetrating peptides” (Amino Acids, 2021).
Where a SMILES comes first, the peptide text is derived from it. The star is where a group is joined. 5FAM = O=C1OC2(c3ccc(O)cc3Oc3cc(O)ccc32)c2ccc(C(=O)*)cc21; X1 = CN(C)c1ccc(/N=N/c2ccc(C(=O)*)cc2)cc1

Key:
HL-60 cells [1] = assay: In vitro cytostatic activity (MTT) on HL-60; type: cell-based, human; settings: HL-60; 3 h incubation, then 3 days in serum-containing medium; MTT assay; ± sd, three independent experiments with four parallels
Protocol: The cells (HL-60 or MCF-7) were grown to confluency and were plated into 96-well plate with initial cell number of 5 × 10^3 per well. After 24 h incubation at 37 °C, cells were treated with the compounds at 1.28 × 10^–3–100 μM concentration range for 3 h in 200 μL final volume. Control cells were treated with serum free medium at 37 °C for 3 h. After incubation the cells were washed twice with serum free medium. For the analysis of the in vitro cytostatic effect, cells were cultured for an additional 72 h in serum containing medium. On day 4, MTT assay was carried out to determine the IC50 values of the compounds. Briefly, 45 μL of MTT solution was added to each well (2 mg/mL, dissolved in serum-free medium). Following the 4 h incubation, plates were centrifuged at 900 g for 5 min, and the supernatant was removed. The precipitated purple crystals were dissolved in 100 μL DMSO and the absorbance was determined at λ = 540 nm and λ = 620 nm using ELISA plate reader (iEMSReader, Labsystems, Finland). The percent of cytostasis was calculated using the following equation: Cytostatic effect (%) = [1 − (ODtreated/ODcontrol)] × 100; where ODtreated and ODcontrol correspond to the optical densities of the treated and the untreated control cells, respectively. In each case three independent experiments were carried out with four parallel measurements. […] The curves were defined using MicrocalTM Origin (version 9.2) software: cytostasis was plotted as a function of concentration, fitted to a sigmoidal curve, and based on this curve, the IC50 value was determined.

CHO-K1 cells = assay: Absolute quantification of total internalised peptide by fluorometry; settings: for Total (37 °C–4 °C) (pmoles) Endocyt. / 4 °C/37 °C (Fluoro): CHO-K1, 60 min; for Total (37 °C–4 °C) (pmoles) Endocyt.: difference of fluorometry values at 37 °C and 4 °C; for 4 °C/37 °C (Fluoro): internalisation ratio by fluorometry; for Total 4 °C (pmoles) Transloc. / Total 37 °C (pmoles) Endocyt. + Transloc.: one million CHO-K1 cells, DMEM-F12, 60 min, cell lysis, fluorometry 525 nm vs calibration curve, mean values; for Total 4 °C (pmoles) Transloc.: pronase wash; for Total 37 °C (pmoles) Endocyt. + Transloc.: trypsin wash
Protocol: We used the quantification method described earlier (Illien et al. [2016]). […] After incubation with peptides and washing the cells with HBSS, 500 μL 0.05% trypsin/EDTA 0.05% (37 °C) or 500 µL pronase 0.05% in 100 mM Tris pH 7.4 (4 °C) was added for 5 min to hydrolyze the remaining extracellular peptide, the membrane-bound peptide and to detach cells. After addition of 100 µL enzyme inhibitors (complete mini at 4 °C (Roche) or trypsin inhibitor (soybean inhibitor 5 mg/mL) at 37 °C mixed with 100 μL bovine serum albumin (1 mg/mL), cells were transferred into a microtube, centrifuged, washed with 1 mL 50 mM Tris buffer pH 7.4, 0.1% BSA, and lysed in 200 μL 50 mM Tris pH 7.4, 1 M NaCl, 1% Nonident P40. The samples were then sonicated for 15 min (to homogenise samples) and centrifugated for 10 min at 16.000 g. Fluorescence intensity in the supernatants was monitored with a MOS 200 M fluorimeter (Biologic SAS) and the maximal intensity was detected around λ = 525 nm. The maximal intensity was retained for the calibration curve and for quantification of samples. The amount of internalised peptides was calculated by comparing the fluorescence intensity of the sample with the calibration curve. For the calibration curve, we prepared a range of peptide amounts (from 2 to 500 pmol) in the lysis buffer (50 mM Tris pH 7.4, 1 M NaCl, 1% Nonidet P40) in the presence of one million suspended cells. The samples were sonicated 15 min and centrifuged at 16.000 g for 10 min. Fluorescence intensity in the supernatants was monitored with a MOS 200 M fluorimeter (Biologic SAS, France) and the maximal intensity was detected around λ = 525 nm. The fluorescence signal of peptides only was obtained by subtracting the fluorescence intensity of cell lysates (autofluorescence) from the fluorescence intensity of the sample.

HL-60 cells [2] = assay: Cellular uptake by flow cytometry on HL-60 cells; type: cell-based, human; settings: 90 min, 37 °C, serum-free
Protocol: HL-60 cells were cultured as described above. To study the cellular uptake of fluorescent labelled compounds, 10^5 cells per well were plated on 24-well plates. After 24 h incubation at 37 °C, cells were treated with the compounds solved in the corresponding serum-free media for 90 min. The cellular uptake was analysed at 1, 5 and 10 µM concentrations. Cells treated with serum-free media for 90 min were used as control. After incubation, treatment solutions were removed and the cells were treated with 100 μL trypsin for 2 min to remove the membrane proteins in order to eliminate non-specific binding of conjugates. The effect of trypsin was terminated by 900 μL HPMI (glucose, NaHCO3, NaCl, HEPES, KCl, MgCl2, CaCl2, Na2HPO4·2H2O) (Kapus et al. [1994]) containing 10% foetal calf serum, and the cells were transferred from the plate to FACS-tubes. Cells were centrifuged at 216 g at 4 °C for 5 min and the supernatant was removed. After this procedure, cells were resuspended in 500 µL HPMI, and the intracellular fluorescence intensity of HL-60 cells was monitored (on channel FITC LP505; emission at λ = 505 nm; LP 505, BP 530/30) by flow cytometry (BD LSR II, BD Bioscience, San Jose, CA, equipped with 488 nm; Coherent Sapphire, 22 mW laser.) which is proportional to the cellular uptake. Data were analysed with FACSDiVa 5.0 software.

HeLa cells = assay: Confocal microscopy of internalisation into HeLa cells; type: cell-based, human; settings: 5 μM, serum free (–) medium, 37 °C
Protocol: HeLa cells (2.0 × 10^5 cells) seeded in 35-mm glass-bottomed dishes (Iwaki) were cultured at a 37 °C incubator for 24 h. The cells were then incubated with peptide in α-MEM( +) and α-MEM(–) for 30 min at 37 °C or 4 °C. After washing with PBS( +) containing 0.5% (w/v) heparin, intracellular distribution of the fluorescently-labelled peptides was analysed without fixing using a confocal microscope (FV1000, Olympus). For time-lapse imaging, the cells were placed at 37 °C in a microchamber (MI-IBC-IF, Olympus) attached on the stage of the inverted microscope. The cells were then treated with 5 µM of Dabcyl–Arg6–Lys(Rh)–NH2 or Dabcyl–Arg4–Lys(Cf)–NH2 in α-MEM( +) or α-MEM(–). Time 0 represents the image immediately after the addition of conjugates.

CN(C)c1ccc(/N=N/c2ccc(C(=O)N[C@@H](CCCNC(=N)N)C(=O)N[C@@H](CCCNC(=N)N)C(=O)N[C@@H](CCCNC(=N)N)C(=O)N[C@@H](CCCNC(=N)N)C(=O)N[C@@H](CCCNC(=N)N)C(=O)N[C@@H](CCCNC(=N)N)C(=O)N[C@@H](CCCCNC(=O)c3ccc4c(c3)C(=O)OC43c4ccc(O)cc4Oc4cc(O)ccc43)C(N)=O)cc2)cc1 [Dabcyl–Arg6–Lys(Cf)–NH2] (X1-RRRRRRK(5FAM)-NH2)
IC50 (HL-60 cells [1]): 21.8 ± 8.2 µM | Total (37 °C–4 °C) (pmoles) Endocyt. (CHO-K1 cells; [peptide] 1 μM): 1.9 pmol | 4 °C/37 °C (Fluoro) (CHO-K1 cells; [peptide] 1 μM): 0.25 | Total 4 °C (pmoles) Transloc. (CHO-K1 cells; [peptide] 1 μM): 0.6 ± 0.04 pmol | Total 37 °C (pmoles) Endocyt. + Transloc. (CHO-K1 cells; [peptide] 1 μM): 2.5 ± 0.2 pmol | Total (37 °C–4 °C) (pmoles) Endocyt. (CHO-K1 cells; [peptide] 2.5 μM): 22 pmol | 4 °C/37 °C (Fluoro) (CHO-K1 cells; [peptide] 2.5 μM): 0.08 | Total 4 °C (pmoles) Transloc. (CHO-K1 cells; [peptide] 2.5 μM): 1.9 ± 0.3 pmol | Total 37 °C (pmoles) Endocyt. + Transloc. (CHO-K1 cells; [peptide] 2.5 μM): 24 ± 1.3 pmol | Total (37 °C–4 °C) (pmoles) Endocyt. (CHO-K1 cells; [peptide] 5 μM): 53 pmol | 4 °C/37 °C (Fluoro) (CHO-K1 cells; [peptide] 5 μM): 0.10 | Total 4 °C (pmoles) Transloc. (CHO-K1 cells; [peptide] 5 μM): 6.1 ± 0.8 pmol | Total 37 °C (pmoles) Endocyt. + Transloc. (CHO-K1 cells; [peptide] 5 μM): 59 ± 2.5 pmol | Total (37 °C–4 °C) (pmoles) Endocyt. (CHO-K1 cells; [peptide] 10 μM): 131 pmol | 4 °C/37 °C (Fluoro) (CHO-K1 cells; [peptide] 10 μM): 0.12 | Total 4 °C (pmoles) Transloc. (CHO-K1 cells; [peptide] 10 μM): 18 ± 2 pmol | Total 37 °C (pmoles) Endocyt. + Transloc. (CHO-K1 cells; [peptide] 10 μM): 149 ± 6 pmol | Cellular uptake, times higher than that of octaarginine (HL-60 cells [2]; HL-60, 5 μM): 4 times | Cellular uptake, times higher than that of octaarginine (HL-60 cells [2]; HL-60, 10 μM): 1.5 times | Time of binding to the cell membrane (HeLa cells): 0.5 min | Time of internalisation (HeLa cells): ≤ 1.5 min
